According to the NIST ThermoML archive (doi:10.1016/j.jct.2008.01.028):

Assay: wn = mass fraction of the nth substance listed
Conditions: Liquid

CN(CCO)CCO [N-methyldiethanolamine] + O
Conditions	mass density [kg/m3]
298.31 K, 205 kPa, w1 = 0.3	1023.7
298.31 K, 506 kPa, w1 = 0.3	1023.8
298.31 K, 1006 kPa, w1 = 0.3	1024
298.31 K, 2006 kPa, w1 = 0.3	1024.3
298.32 K, 5003 kPa, w1 = 0.3	1025.5
298.33 K, 206 kPa, w1 = 0.15	1009.9
298.33 K, 508 kPa, w1 = 0.15	1010
298.33 K, 1008 kPa, w1 = 0.15	1010.2
298.33 K, 2008 kPa, w1 = 0.15	1010.6
298.34 K, 5006 kPa, w1 = 0.15	1011.9
